Source: patent publication US7985072B2, “Method and apparatus for tooth rejuvenation and hard tissue modification” (Rejuvedent LLC, priority 2005, dated 2011)

Assays:
[1] = tested on: maxillary right central incisor of a volunteer; assay: Example 2: at-home tooth whitening treatment; conditions: for Normalized optical coefficient of reflection: before treatment 1
[2] = 180-minute exposure of tooth halves to citric acid solution or gel, then methylene blue; conditions: pH=1.5, +20° C., 180 minutes
Protocol: Exposure in both cases was for 180 minutes and the tooth was then washed in distilled water. […] The tooth was then exposed to an aqueous solution of methylene blue.

[3] = Example 3: thermal treatment of etched enamel impregnated by sapphire particles (CO2 laser), in vitro; parameters: species or system human; conditions: pH=1.5, approximately +50° C., approximately 10 minutes
Protocol: The authors produced a durable, white colored coating on the enamel surface in an in-vitro experiment as described below. The experiment was conducted on freshly extracted teeth from subjects in the 25-40 age group. The teeth were extracted for periodontal reasons. All specimens had healthy, intact enamel. Prior to the experiment, the specimen were stored for no longer than two weeks in a physiological solution, in a dark place at a temperature of approximately +4° C.
One half of the crown of the tooth was coated with varnish. […] The tooth was exposed to the acid for a period of approximately 10 minutes, which was sufficient for the formation of a porous layer of enamel, approximately 50 μm in thickness on unprotected side of the specimen. […]
Thermocycling test was performed after described treatment The tooth was placed into two alternate water baths, one at +25° C. and the other at +90° C., for a period of 2 seconds into each bath, for a total immersion of 100 cycles. The hardness of the treated and untreated sides was assessed, before and after thermocycling, using a dental probe. The strength of the adhesion of the newly formed layer with sapphire particles to the underlying enamel was also assessed using the tip of the dental probe in an attempt to dislodge the newly formed layer at the border.

gingival tissue = assay: Safe treatment time (STT): onset of discomfort on subjects' gingival tissue; type: in vivo, human; parameters: key to effect of discomfort on gingival tissue: “−” means that the subject experienced no discomfort; “+” means that some discomfort was reported
Protocol: It was discovered, that a high concentration and low pH acid can work well for exposure times long enough to produce significant changes to hard tissue. The use of high concentration, edible acids for treatment of hard tissues is limited by the action of such acids on soft tissues. […] The typical application time for the desired depth of etching can be from 1-5 minutes for home use, and up for up to 10-20 minutes for professional use. The safe treatment time (STT) is defined as the time during which acid can interact with the soft tissues without damaging them. The STT depends on the acid concentration and the temperature, i.e. STT (pH,T), where pH is the pH of the acid, and T is the temperature of the acid. […] The experiment was conducted on subjects with healthy oral tissues. Prior to treatment, the acid was heated to a control temperature T, using a thermostat, and a small volume (approximately 5×10^−3 ml) of acid was applied to an area of the subject's gingival tissue. The thermo-relaxation time of such a volume is approximately 5-10 seconds. To provide for a relatively constant temperature on the tissue surface, the acid was reapplied at the same temperature T to the same area every 5-10 seconds. This procedure was repeated until the subject reported discomfort. A feeling of discomfort always precedes tissue damage. Therefore, the time of the onset of discomfort can be used as an estimate of the STT with a certain safety margin.

[4] = Six-hour exposure of extracted teeth to gel or citric acid; conditions: +24° C.
Description: Control of etching using highly concentrated edible acid can be achieved by using different additives. The interaction between acid and hard tissue leads to a dissolution of mineral components and modification of organic components. Three types of dissolution are known: Type I, where enamel rods are removed preferentially, Type II, where the organic matrix is removed preferentially, and Type III, where both Type I and Type II dissolution take place. […] The present invention, proposes to control the etching process, using edible acid with a special additive. One of control mechanisms involves additives, including, but not limited to, the ions of Ca Cr, Ba Cd, Mg, P, SiF, and their compounds, such as PO4. Other non-organic or organic additives may also be used. Additions of such ion combinations may slow the dissolution of the inter-prismatic regions or may provide for re-crystallization of hydroxyapatite crystallites, or the building of new crystallites of fluroapatite. The use of such additives can be effective in the control of tooth etching, or in the preparation of the tooth surface for the application of a protective or cosmetic coating, or for the thermal re-crystallization of the tooth surface.
Extracted teeth with healthy enamel were used in the experiment. One half of enamel surface of each tooth was covered with a protective cover (“control side”). The other side (“treatment side”) was left unprotected. […]

Compound: O=C(O)CC(O)(CC(=O)O)C(=O)O [citric acid]
- Normalized optical coefficient of reflection ([1]; 1 months after treatment): 1.3 a.u.
- Normalized optical coefficient of reflection ([1]; 4 months after treatment): 1.15 a.u.
- Normalized optical coefficient of reflection ([1]; after 3 weeks of daily treatment (pH=1.5, room temperature, 2 minutes)): 1.34 a.u.
- change in enamel gloss and reflection ([1]; after three-week treatment): No visible change in enamel gloss and reflection
- improvement in tooth whitening (coefficient of reflection for white light) versus original color ([1]; after three-week treatment): 35%
- dentinal hypersensitivity and change in gingival tissue ([1]; after treatment or during review appointments): No dentinal hypersensitivity
- pain or discomfort throughout treatment ([1]; daily 2 minutes for three weeks): did not report any pain or discomfort
- detrimental changes in soft tissues or enamel (post-treatment caries) ([1]; four month review visit): no detrimental changes
- improvement compared with original coefficient of reflection ([1]; four months after treatment): approximately 15%
- whitening effect exceeding the original ([1]; one month after treatment): 33%
- coloration by aqueous methylene blue after exposure [2]: colored by methylene blue
- type of enamel etching [2]: Type I etching
- whitening effect [2]: strong whitening effect
- thickness of porous layer of enamel formed [3]: approximately 50 μm
- safe treatment time (STT) (gingival tissue; 50° C., pH of 1.5): greater than 8 minutes
- damage to soft tissues (gingival tissue; high concentrations and high temperatures (up to 90° C.)): did not cause damage to soft tissues
- effect of discomfort on gingival tissue (gingival tissue; pH=1.5, T +20 °C, t 1 min): −
- effect of discomfort on gingival tissue (gingival tissue; pH=1.5, T +20 °C, t 2 min): −
- effect of discomfort on gingival tissue (gingival tissue; pH=1.5, T +20 °C, t 3 min): −
- effect of discomfort on gingival tissue (gingival tissue; pH=1.5, T +20 °C, t 4 min): −
- effect of discomfort on gingival tissue (gingival tissue; pH=1.5, T +20 °C, t 5 min): −
- effect of discomfort on gingival tissue (gingival tissue; pH=1.5, T +20 °C, t 6 min): −
- effect of discomfort on gingival tissue (gingival tissue; pH=1.5, T +20 °C, t 7 min): −
- effect of discomfort on gingival tissue (gingival tissue; pH=1.5, T +20 °C, t 8 min): −
- effect of discomfort on gingival tissue (gingival tissue; pH=1.5, T +20 °C, t 9 min): −
- effect of discomfort on gingival tissue (gingival tissue; pH=1.5, T +20 °C, t 10 min): −
- effect of discomfort on gingival tissue (gingival tissue; pH=1.5, T +20 °C, t 11 min): −
- effect of discomfort on gingival tissue (gingival tissue; pH=1.5, T +20 °C, t 12 min): +
- effect of discomfort on gingival tissue (gingival tissue; pH=1.5, T +36 °C, t 1 min): −
- effect of discomfort on gingival tissue (gingival tissue; pH=1.5, T +36 °C, t 2 min): −
- effect of discomfort on gingival tissue (gingival tissue; pH=1.5, T +36 °C, t 3 min): −
- effect of discomfort on gingival tissue (gingival tissue; pH=1.5, T +36 °C, t 4 min): −
- effect of discomfort on gingival tissue (gingival tissue; pH=1.5, T +36 °C, t 5 min): −
- effect of discomfort on gingival tissue (gingival tissue; pH=1.5, T +36 °C, t 6 min): −
- effect of discomfort on gingival tissue (gingival tissue; pH=1.5, T +36 °C, t 7 min): −
- effect of discomfort on gingival tissue (gingival tissue; pH=1.5, T +36 °C, t 8 min): −
- effect of discomfort on gingival tissue (gingival tissue; pH=1.5, T +36 °C, t 9 min): −
- effect of discomfort on gingival tissue (gingival tissue; pH=1.5, T +36 °C, t 10 min): +
- effect of discomfort on gingival tissue (gingival tissue; pH=1.5, T +50 °C, t 1 min): −
- effect of discomfort on gingival tissue (gingival tissue; pH=1.5, T +50 °C, t 2 min): −
- effect of discomfort on gingival tissue (gingival tissue; pH=1.5, T +50 °C, t 3 min): −
- effect of discomfort on gingival tissue (gingival tissue; pH=1.5, T +50 °C, t 4 min): −
- effect of discomfort on gingival tissue (gingival tissue; pH=1.5, T +50 °C, t 5 min): −
- effect of discomfort on gingival tissue (gingival tissue; pH=1.5, T +50 °C, t 6 min): −
- effect of discomfort on gingival tissue (gingival tissue; pH=1.5, T +50 °C, t 7 min): −
- effect of discomfort on gingival tissue (gingival tissue; pH=1.5, T +50 °C, t 8 min): +
- effect of discomfort on gingival tissue (gingival tissue; pH=1.5, T +70 °C, t 1 min): −
- effect of discomfort on gingival tissue (gingival tissue; pH=1.5, T +70 °C, t 2 min): −
- effect of discomfort on gingival tissue (gingival tissue; pH=1.5, T +70 °C, t 3 min): −
- effect of discomfort on gingival tissue (gingival tissue; pH=1.5, T +70 °C, t 4 min): −
- effect of discomfort on gingival tissue (gingival tissue; pH=1.5, T +70 °C, t 5 min): −
- effect of discomfort on gingival tissue (gingival tissue; pH=1.5, T +70 °C, t 6 min): +
- effect of discomfort on gingival tissue (gingival tissue; pH=1.5, T +90 °C, t 1 min): −
- effect of discomfort on gingival tissue (gingival tissue; pH=1.5, T +90 °C, t 2 min): −
- effect of discomfort on gingival tissue (gingival tissue; pH=1.5, T +90 °C, t 3 min): +
- hardness of treated surface (dental probe / versus control side) [4]: easily damaged by scratching with a dental probe
- predominant etching pattern [4]: Type I etching
- specular reflection property of tooth surface [4]: completely lost its specular reflection property
- whitening effect of treated sides [4]: comparable
